According to patent publication US10874743B2, “IRAK degraders and uses thereof” (Kymera Therapeutics, Inc., priority 2017, dated 2020):

Experiments:
[1] = tested on: OCI-LY10 cells; assay: OCI-LY-10 CTG cell viability assay (EC50); format: cell-based; conditions: Homo sapiens, 96 h, CellTiter-Glo cell viability, 4 days incubation, top concentration 10 μM, read-out: OCI-LY10 IRAK4 EC50
Procedure: A CTG cell viability assay using OCI-LY-10 cells was run to determine compound-mediated cell viability (EC50).
Compound-mediated viability effect on OCI-LY10 was quantitatively determined using the CellTiter-Glo® Luminescent Cell Viability Assay kit from Promega (Catalog number G7570) following manufacturer's recommended procedures. […] Compounds were then added to the assay plate with final top concentration of 10 μM and 1:3 dilution series with total of 9 doses. The final DMSO concentration was normalized to 0.2%. The assay plates were incubated at 37° C. for 4 days under 5% CO2. Then the assay plate was equilibrated at room temperature for 10 minutes. […] The data was then analyzed by software Prism 7.0 from GraphPad and the dose response curves were fit using a three-parameter logistic equation to calculate EC50.

[2] = target: T1, IRAK4 (Homo sapiens, UniProt Q9NWZ3); assay: OCI-LY-10 MSD assay for IRAK4 DC50; format: cell-based; set-up: endogenous in cells; host or cells: OCI-LY10; conditions: OCI-LY10 cells, 4 hr incubation, concentration required to degrade 50% of protein
T1 sequence (Q9NWZ3 1-460): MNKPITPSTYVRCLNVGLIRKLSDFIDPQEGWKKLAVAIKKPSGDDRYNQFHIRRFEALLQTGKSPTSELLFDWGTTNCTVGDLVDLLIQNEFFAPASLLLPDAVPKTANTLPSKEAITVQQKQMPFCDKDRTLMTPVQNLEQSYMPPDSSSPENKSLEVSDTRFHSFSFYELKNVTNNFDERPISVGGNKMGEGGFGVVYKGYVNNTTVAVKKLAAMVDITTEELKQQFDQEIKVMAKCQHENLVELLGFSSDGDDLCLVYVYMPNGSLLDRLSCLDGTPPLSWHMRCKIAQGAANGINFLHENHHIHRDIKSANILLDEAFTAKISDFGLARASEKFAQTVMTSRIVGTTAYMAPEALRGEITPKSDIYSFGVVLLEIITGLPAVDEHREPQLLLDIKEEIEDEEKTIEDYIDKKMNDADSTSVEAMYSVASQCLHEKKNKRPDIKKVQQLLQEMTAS
Summary of the method: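 IRAK4 level was quantified by MSD electrochemiluminescence (anti-IRAK4 capture antibody, rabbit anti-IRAK4 detection antibody) in RIPA lysates of OCI-Ly10 cells. Cells had been treated with compound for 4 hr (8-point, 3-fold serial dilution). Remaining protein versus concentration was fitted to a sigmoidal curve to give DC50.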

Row | EC50 [1] [nM] | DC50 [2] [nM] | SMILES
1 | < 50 | < 50 | O=C1CCC(n2c(=O)oc3c(CCCOCCCNC(=O)c4ccc(-n5cc(NC(=O)c6coc(-c7ccnc(NCC8CC8)c7)n6)c(C(F)F)n5)cn4)cccc32)C(=O)N1 (centres unmarked) [I-479]
2 | 500 to 1000 | < 50 | Cn1c(=O)n([C@@H]2CCC(=O)NC2=O)c2cccc(CCCOCCOCCNCc3ccc(-n4cc(NC(=O)c5coc(-c6ccnc(NCC(F)(F)F)c6)n5)c(C(N)=O)n4)cc3)c21 [I-689]
3 | > 1000 | > 1000 | Cn1cc(NC(=O)c2coc(-c3ccnc(NCC(F)(F)F)c3)n2)c(C(=O)NCCOCCOCCOCCOCCOCCNc2cccc3c2C(=O)N(C2CCC(=O)NC2=O)C3=O)n1 (centres unmarked) [I-449]
4 | < 50 | < 50 | Cn1c(=O)n(C2CCC(=O)NC2=O)c2ccc(N3CCN(CCOCCNCc4ccc(-n5cc(NC(=O)c6coc(-c7ccnc(NCC8CC8)c7)n6)c(C(F)F)n5)cc4)CC3)cc21 (centres unmarked) [I-685]
5 | < 50 | < 50 | CN(C[C@@H]1CN(CCCc2ccc3c(c2)n(C)c(=O)n3C2CCC(=O)NC2=O)CCO1)C(=O)c1ccc(-n2cc(NC(=O)c3coc(-c4ccnc(NCC5CC5)c4)n3)c(C(F)F)n2)cc1 (some centres unmarked) [I-488]
6 | < 50 | < 50 | Cn1c(=O)n(C2CCC(=O)NC2=O)c2ccc(CCCN3CCO[C@@H](CNCc4ccc(-n5cc(NC(=O)c6coc(-c7ccnc(NCC8CC8)c7)n6)c(C(F)F)n5)cc4)C3)cc21 (some centres unmarked) [I-574]
7 | > 1000 | > 1000 | Cn1cc(NC(=O)c2coc(-c3ccnc(NCC(F)(F)F)c3)n2)c(C(=O)NCCOCCOCCOCCCc2ccc3c(c2)n(C)c(=O)n3C2CCC(=O)NC2=O)n1 (centres unmarked) [I-463]
8 | 50 to 100 |  | O=C1CCC(N2Cc3cc(CNC(=O)NCCOCCOCCNC(=O)n4cc(NC(=O)c5coc(-c6ccnc(NCC7CC7)c6)n5)c(C(F)F)n4)ccc3C2=O)C(=O)N1 (centres unmarked) [I-458]
9 | 500 to 1000 |  | CN(CCCCOCCCCc1ccc2c(c1)n(C)c(=O)n2C1CCC(=O)NC1=O)Cc1ccc(-n2cc(NC(=O)c3coc(-c4ccnc(NCC(F)(F)F)c4)n3)c(C(N)=O)n2)cc1 (centres unmarked) [I-578]
10 | > 1000 |  | Cn1cc(NC(=O)c2coc(-c3ccnc(NCC(F)(F)F)c3)n2)c(C(=O)NCCOCCOCCOCCCc2cccc3c2n(C)c(=O)n3C2CCC(=O)NC2=O)n1 (centres unmarked) [I-464]
11 | < 50 |  | Cn1c(=O)n(C2CCC(=O)NC2=O)c2ccc(CCCOCCNCc3ccc(-n4cc(NC(=O)c5coc(-c6ccnc(NCC7CC7)c6)n5)c(C(F)F)n4)cc3)cc21 (centres unmarked) [I-531]
12 | > 1000 |  | Cn1c(=O)n(C2CCC(=O)NC2=O)c2ccc(CNC(=O)OCCCNCc3ccc(-n4cc(NC(=O)c5coc(-c6ccnc(NCC(F)(F)F)c6)n5)c(C(N)=O)n4)cc3)cc21 (centres unmarked) [I-563]
13 | > 1000 |  | Cc1ncsc1-c1ccc(CNC(=O)[C@@H]2C[C@@H](O)CN2C(=O)[C@@H](NC(=O)CCCCCCCCCCC(=O)N2CCN(c3ccn4ncc(C(=O)Nc5cn(C)nc5C(F)F)c4n3)CC2)C(C)(C)C)cc1 [I-483]
14 | > 1000 |  | Cn1cc(NC(=O)c2cnn3ccc(N4CCN(C(=O)COCCOCCOCCOCCCc5cccc6c5n(C)c(=O)n6C5CCC(=O)NC5=O)CC4)nc23)c(C(F)F)n1 (centres unmarked) [I-465]
15 | > 1000 |  | Cn1cc(NC(=O)c2coc(-c3ccnc(NCC(F)(F)F)c3)n2)c(C(=O)NC2CCN(CCOCCOCCOCCOCCCc3cccc4c3n(C)c(=O)n4C3CCC(=O)NC3=O)CC2)n1 (centres unmarked) [I-457]
16 | < 50 |  | Cn1c(=O)n(C2CCC(=O)NC2=O)c2ccc(C#CCCN3CCC(CNCc4ccc(-n5cc(NC(=O)c6coc(-c7ccnc(NCC8CC8)c7)n6)c(C(F)F)n5)cc4)CC3)cc21 (centres unmarked) [I-582]
17 | 50 to 100 |  | CN1CCN(C(=O)c2nn(-c3ccc(C(=O)NCCCCOCCCCc4ccc5c(c4)n(C)c(=O)n5C4CCC(=O)NC4=O)cc3)cc2NC(=O)c2coc(-c3ccnc(NCC(F)(F)F)c3)n2)CC1 (centres unmarked) [I-481]
18 | 100 to 500 |  | CN(C)CCNC(=O)c1nn(-c2ccc(C(=O)NCCCCOCCCCc3ccc4c(c3)n(C)c(=O)n4C3CCC(=O)NC3=O)cc2)cc1NC(=O)c1coc(-c2ccnc(NCC(F)(F)F)c2)n1 (centres unmarked) [I-482]
19 | > 1000 |  | Cn1cc(NC(=O)c2cnn3ccc(N4CCN(C(=O)COCCOCCOCCNc5cccc6c5C(=O)N(C5CCC(=O)NC5=O)C6=O)CC4)nc23)c(C(F)F)n1 (centres unmarked) [I-468]
20 | > 1000 |  | Cn1c(=O)n(C2CCC(=O)NC2=O)c2cccc(CCCOCCOCCNCc3ccc(-n4cc(NC(=O)c5cc(C#N)ccn5)c(C(N)=O)n4)cc3)c21 (centres unmarked) [I-527]

Row | EC50 [1] [nM] | DC50 [2] [nM] | SMILES
21 | 100 to 500 |  | O=C1CCC(N2C[C@H](c3cccc(C#CCCOCCCNCc4ccc(-n5cc(NC(=O)c6coc(-c7ccnc(NCC8CC8)c7)n6)c(C(F)F)n5)cc4)c3)OC2=O)C(=O)N1 (some centres unmarked) [I-581]
22 | > 1000 |  | Cc1ncsc1-c1ccc(CNC(=O)[C@@H]2C[C@@H](O)CN2C(=O)[C@@H](NCCOCCOCCOCCNCc2nn(C)cc2NC(=O)c2coc(-c3ccnc(NCC(F)(F)F)c3)n2)C(C)(C)C)cc1 [I-524]
23 | > 1000 |  | CN(CC(=O)N(C)CC(=O)N(C)CC(=O)N(C)CCCc1ccc2c(c1)n(C)c(=O)n2C1CCC(=O)NC1=O)Cc1ccc(-n2cc(NC(=O)c3coc(-c4ccnc(NCC(F)(F)F)c4)n3)c(C(N)=O)n2)cc1 (centres unmarked) [I-526]
24 | > 1000 |  | Cn1cc(NC(=O)c2coc(-c3ccnc(NCC(F)(F)F)c3)n2)c(C(=O)NCCOCCOCCOCCOCCCc2cccc3c2n(C)c(=O)n3C2CCC(=O)NC2=O)n1 (centres unmarked) [I-455]
25 | 100 to 500 |  | Cn1c(=O)n(C2CCC(=O)NC2=O)c2ccc(CCCOCCOCCNC(c3ccc(-n4cc(NC(=O)c5coc(-c6ccnc(NCC7CC7)c6)n5)c(C(N)=O)n4)cc3)C(F)(F)F)cc21 (centres unmarked) [I-448]
26 | > 1000 |  | CN(CCCOCCCc1ccc2c(c1)n(C)c(=O)n2C1CCC(=O)NC1=O)C(=O)c1ccc(-n2cc(NC(=O)c3coc(-c4ccnc(NCC(F)(F)F)c4)n3)c(C(N)=O)n2)cc1 (centres unmarked) [I-494]
27 | 100 to 500 |  | COCCOCCNCc1ccc(-n2cc(NC(=O)c3coc(-c4ccnc(NCC(F)(F)F)c4)n3)c(C(N)=O)n2)cc1 [I-597]
28 | > 1000 |  | Cn1cc(NC(=O)c2cnn3ccc(N4CCNCC4)nc23)c(C(=O)NCCOCCOCCOCCNc2cccc3c2C(=O)N(C2CCC(=O)NC2=O)C3=O)n1 (centres unmarked) [I-471]
29 | > 1000 |  | Cn1c(=O)n(C2CCC(=O)NC2=O)c2ccc(CCCN3CCO[C@H](CNCc4ccc(-n5cc(NC(=O)c6coc(-c7ccnc(NCC8CC8)c7)n6)c(C(F)F)n5)cc4)C3)cc21 (some centres unmarked) [I-573]
30 | 500 to 1000 |  | CN1C(=O)CCC(n2c(=O)n(C)c3c(CCCOCCOCCNC(=O)c4ccc(-n5cc(NC(=O)c6coc(-c7ccnc(NCC8CC8)c7)n6)c(C(F)F)n5)cc4)cccc32)C1=O (centres unmarked) [I-515]
31 | > 1000 |  | Cc1ncsc1-c1ccc(CNC(=O)[C@@H]2C[C@@H](O)CN2C(=O)[C@@H](NC(=O)COCCOCCOCCOCCOCC(=O)N2CCN(c3ccn4ncc(C(=O)Nc5cn(C)nc5C(F)F)c4n3)CC2)C(C)(C)C)cc1 [I-484]
32 | > 1000 |  | Cn1cc(NC(=O)c2cnn3ccc(N4CCN(C(=O)COCCOCCOCCOCCCc5ccc6c(c5)n(C)c(=O)n6C5CCC(=O)NC5=O)CC4)nc23)c(C(F)F)n1 (centres unmarked) [I-466]
33 | > 1000 |  | Cn1cc(NC(=O)c2coc(-c3ccnc(NCC(F)(F)F)c3)n2)c(-c2cncc(CNCCOCCOCCCc3cccc4c3n(C)c(=O)n4C3CCC(=O)NC3=O)c2)n1 (centres unmarked) [I-541]
34 | > 1000 |  | Cn1ncc2nc(Nc3cnn(CCOCCOCCOCCNc4cccc5c4C(=O)N(C4CCC(=O)NC4=O)C5=O)c3)nc(NC3CCC(N4CCOCC4)CC3)c21 (centres unmarked) [I-691]
35 | > 1000 |  | CN(C)CCNC(=O)c1nn(-c2ccc(CNCCCCOCCCCc3ccc4c(c3)n(C)c(=O)n4C3CCC(=O)NC3=O)cc2)cc1NC(=O)c1coc(-c2ccnc(NCC(F)(F)F)c2)n1 (centres unmarked) [I-560]
36 | > 1000 |  | Cn1c(=O)n(C2CCC(=O)NC2=O)c2cccc(C#CCOCCOCCn3cc4cc(NC(=O)c5cccc(C(F)(F)F)n5)c(C(C)(C)O)cc4n3)c21 (centres unmarked) [I-688, N-[2-[2-[2-[3-[1-(2,6-dioxo-3-piperidyl)-3-methyl-2-oxo-benzimidazol-4-yl]prop-2-ynoxy]ethoxy]ethyl]-6-(1-hydroxy-1-methyl-ethyl)indazol-5-yl]-6-(trifluoromethyl)pyridine-2-carboxamide]
37 | > 1000 |  | CN1C(=O)CCC(n2c(=O)n(C)c3c(CCCOCCOCCNCc4ccc(-n5cc(NC(=O)c6coc(-c7ccnc(NCC8CC8)c7)n6)c(C(F)F)n5)cc4)cccc32)C1=O (centres unmarked) [I-596]
38 | < 50 |  | Cn1c(=O)n(C2CCC(=O)NC2=O)c2ccc(CCCC(C)(O)CCCNCc3ccc(-n4cc(NC(=O)c5coc(-c6ccnc(NCC7CC7)c6)n5)c(C(F)F)n4)cc3)cc21 (centres unmarked) [I-540]
39 | > 1000 |  | Cn1c(=O)n(C2CCC(=O)NC2=O)c2cccc(CCCOCCOCCNCc3ccc(-n4cc5c(n4)CCCN5C(=O)c4coc(-c5ccnc(NCC(F)(F)F)c5)n4)cc3)c21 (centres unmarked) [I-528]
40 | 500 to 1000 |  | Cn1c(=O)n(C2CCC(=O)NC2=O)c2ccc(CCCN3CCO[C@@H](CNCc4ccc(-n5cc(NC(=O)c6cnn7ccc(N8CCNCC8)nc67)c(C(F)F)n5)cc4)C3)cc21 (some centres unmarked) [I-617]
